# Source: US20020183327A1, “Bicyclic imidazo-3-yl-amine derivatives substituted on the 6-membered ring” (GRUENENTHAL GMBH., priority 1999, published 2002)
# Test system: α2-subtype of the human α-adrenergic receptor
# Experiment: SPA assay, affinity for the α2-subtype of the human α-adrenergic receptor
# Format: binding
# Details: at a concentration of 10 μM
# Description: The affinity for the α2-subtype of the human α-adrenergic receptor was determined by means of a SPA assay conventionally used for high throughput screening as described in John P. Devlin, High Throughput Screening, Marcel Dekker Inc. 1997, pp. 307 to 316. This literature is introduced here as a reference and thus forms part of the disclosure. At a concentration of 10 μM, the following affinities for the listed examples were determined: […]
row,SMILES,"α2-affinity, 10 μM"
1,[C-]#[N+]CCCCCCNc1c(C2CCCCC2)nc2cccc(C)n12 [Example 16],67%
2,"Cc1ccc2nc(C)c(NC(C)(C)CC(C)(C)C)n2c1 [Example 17, (2,6-dimethylimidazo[1,2-a]pyridin-3-yl)-(1,1,3,3-tetramethylbutyl)-amine]",65%
3,"Cc1ccn2c(NC3CCCCC3)c(C)nc2c1 [Example 18, cyclohexyl-(2,7-dimethylimidazo[1,2-a]pyridin-3-yl)-amine]",74%
4,"Cc1cc(C)n2c(NC3CCCCC3)c(C)nc2c1 [Example 19, cyclohexyl-(2,5,7-trimethylimidazo[1,2-a]pyridin-3-yl)-amine]",81%
5,"[C-]#[N+]CCCCCCNc1c(-c2ccc(OC)c(OC)c2)nc2ccc(C)cn12 [Example 20, [2-(3,4-dimethoxyphenyl)-6-methylimidazo[1,2-a]pyridin-3-yl]-(6-isocyanohexyl)-amine]",85%
6,"Cc1ccn2c(NC(C)(C)CC(C)(C)C)c(C)nc2c1 [Example 21, (2,7-dimethylimidazo[1,2-a]pyridin-3-yl)-(1,1,3,3-tetramethylbutyl)-amine]",109%
7,"Cc1nc2c(C)cccn2c1NC(C)(C)CC(C)(C)C [Example 22, (2,8-dimethyl-imidazo[1,2-a]pyridin-3-yl)-(1,1,3,3-tetramethylbutyl)-amine]",69%
8,"Cc1cc(C)n2c(NC(C)(C)CC(C)(C)C)c(C)nc2c1 [Example 23, (1,1,3,3-tetramethylbutyl)-(2,5,7-trimethylimidazo[1,2-a]pyridin-3-yl)-amine]",97%
9,"[C-]#[N+]CCCCCCNc1c(-c2ccc(OC)c(OC)c2)nc2cc(C)ccn12 [Example 24, [2-(3,4-dimethoxyphenyl)-7-methylimidazo[1,2-a]pyridin-3-yl]-(6-isocyanohexyl)-amine]",75%
10,"[C-]#[N+]CCCCCCNc1c(-c2ccccc2OC)nc2ccc(C)cn12 [Example 25, (6-isocyanohexyl)-[2-(2-methoxyphenyl)-6-methyl-imidazo[1,2-a]pyridin-3-yl]-amine]",51%
11,"FC(F)(F)c1ccc2nc(-c3ccco3)c(NC3CCCCC3)n2c1 [Example 26, cyclohexyl-(2-furan-2-yl-6-trifluoromethylimidazo[1,2-a]pyridin-3-yl)-amine]",70%
12,"Cc1nc2c(OCc3ccccc3)cccn2c1NC(C)(C)CC(C)(C)C [Example 29, (8-benzyloxy-2-methylimidazo[1,2-a]pyridin-3-yl)-(1,1,3,3-tetramethylbutyl)-amine]",100%
13,"COC(=O)CNc1c(C2CCCCC2)nc2c(OCc3ccccc3)cccn12 [Example 30, (8-benzyloxy-2-cyclohexylimidazo[1,2-a]pyridin-3-ylamino)-acetic acid methyl ester]",60%
14,"COC(=O)CNc1c(C)nc2c(OCc3ccccc3)cccn12 [Example 31, (8-benzyloxy-2-methylimidazo[1,2-a]pyridin-3-ylamino)-acetic acid methyl ester]",61%
15,"CCCCNc1c(C2CCCCC2)nc2cccc(CCC)n12 [Example 32, Butyl-(2-cyclohexyl-5-propylimidazo[1,2-a]pyridin-3-yl)-amine]",61%
16,"CC(=O)N(c1c(-c2ccco2)nc2c(Cl)cc(Cl)cn12)C1CCCCC1 [Example 33, N-cylcohexyl-N-(6,8-dichloro-2-furan-2-yl-imidazo[1,2-a]pyridin-3-yl)-acetamide]",73%
17,"CC(=O)N(c1c(-c2ccco2)nc2ccc(C(F)(F)F)cn12)C1CCCCC1 [Example 34, N-cylcohexyl-N-(2-furan-2-yl-6-trifluoromethylimidazo[1,2-a]pyridin-3-yl)-acetamide]",72%
18,"CC(=O)N(c1c(C2CCCCC2)nc2c(OCc3ccccc3)cccn12)C1CCCCC1 [Example 35, N-(8-benzyloxy-2-cyclohexylimidazo[1,2-a]pyridin-3-yl)-N-cyclohexyl-acetamide]",75%
